Columns and labels:
[1] = relative solubility, yes/no; cited from earlier work
[2] = General solubility of exemplary components; assay type: physicochemical; details: 200 proof ethanol, filtered through 0.22 micrometer PTFE filter
Description: The following table lists the relative solubility of exemplary components of a formulation. A number of different dyes are listed along with their solubility information taken from the various literature sources and tested experimentally (200 proof ethanol and filtered through a 0.22 micrometer PTFE filter).

SMILES	Alcohol Solubility (Literature) [1]	Water Solubility [1]	Alcohol Solubility (tested) [2]
CCN(Cc1cccc(S(=O)(=O)[O-])c1)c1ccc(C(=C2C=CC(=[N+](CC)Cc3cccc(S(=O)(=O)[O-])c3)C=C2)c2ccccc2S(=O)(=O)[O-])cc1.[Na+].[Na+] [FD&C Blue #1]	Yes	Yes	–
O=C([O-])C1=NN(c2ccc(S(=O)(=O)[O-])cc2)C(=O)C1N=Nc1ccc(S(=O)(=O)[O-])cc1.[Na+].[Na+].[Na+] (stereo not shown) [FD&C Yellow #5]	Yes	Yes	Yes
O=C1/C(=C2\Nc3ccc(S(=O)(=O)[O-])cc3C2=O)Nc2ccc(S(=O)(=O)[O-])cc21.[Na+].[Na+] [FD&C Blue #2]	Yes	Yes	Yes
COc1ccc2c3c1O[C@H]1C(=O)CC[C@@]4(O)[C@@H](C2)N(C)CC[C@]314.Cl [Oxycodone HCl, reference compound]	Yes	Yes	–
COc1cc(S(=O)(=O)[O-])c(C)cc1N=Nc1c(O)ccc2cc(S(=O)(=O)[O-])ccc12.[Na+].[Na+] [FD&C Red #40]	Yes	Yes	Yes
